Results taken from PubChem BioAssay (NCI).
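48-hour exposure; five concentrations; linearly interpolated endpoints. GI50 marks 50% less growth. TGI marks complete inhibition of growth.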

Legend:
Experiment in all cases: inhibition of tumour cell growth, NCI panel, 48 h
[1] = test system: OVCAR-5 ovarian
[2] = test system: NCI-H23 lung
[3] = test system: T-47D breast
[4] = test system: SNB-75 CNS
[5] = test system: CCRF-CEM leukemia
[6] = test system: A549 NSCLC
[7] = test system: SF-268 CNS
[8] = test system: 786-0 renal
[9] = test system: SK-MEL-5 melanoma
[10] = test system: SR leukemia
[11] = test system: K-562 leukemia
[12] = test system: SK-MEL-2 melanoma
[13] = test system: MOLT-4 leukemia
[14] = test system: SK-OV-3 ovarian
[15] = test system: OVCAR-3 ovarian
[16] = test system: TK-10 renal
[17] = test system: HS 578T breast
[18] = test system: OVCAR-8 ovarian
[19] = test system: SK-MEL-28 melanoma
[20] = test system: NCI/ADR-RES ovarian
[21] = test system: RXF 393 renal
[22] = test system: HOP-92 NSCLC
[23] = test system: COLO 205 colon
[24] = test system: KM12 colon
[25] = test system: NCI-H522 lung
[26] = test system: OVCAR-4 ovarian
[27] = test system: M14 melanoma
[28] = test system: MDA-MB-231 breast
[29] = test system: SF-295 CNS
[30] = test system: HCT-15 colon
[31] = test system: RPMI-8226 leukemia
[32] = test system: NCI-H460 lung
[33] = test system: MALME-3M melanoma
[34] = test system: ACHN renal
[35] = test system: SNB-19 CNS
[36] = test system: HCT-116 colon
[37] = test system: NCI-H226 lung
[38] = test system: HL-60(TB) leukemia
[39] = test system: HT29 colon
[40] = test system: CAKI-1 renal
[41] = test system: HOP-62 NSCLC
[42] = test system: EKVX NSCLC
[43] = test system: SW-620 colon
[44] = test system: IGROV1 ovarian
[45] = test system: PC-3 prostate
[46] = test system: HCC-2998 colon
[47] = test system: MCF7 breast
[48] = test system: UACC-257 melanoma

Structure (SMILES): N#Cc1c2cccnc2c2nnc3cc(Cl)c(Cl)cc3n12
- GI50 [1]: > 100 µM
- TGI [1]: > 100 µM
- GI50 [2]: 2.81 µM
- TGI [2]: > 100 µM
- GI50 [3]: 1.6 µM
- TGI [3]: 4 µM
- GI50 [4]: 1.54 µM
- TGI [4]: 3.96 µM
- GI50 [5]: 3.06 µM
- TGI [5]: > 100 µM
- GI50 [6]: > 100 µM
- TGI [6]: > 100 µM
- GI50 [7]: 2.26 µM
- TGI [7]: 5.25 µM
- GI50 [8]: > 100 µM
- TGI [8]: > 100 µM
- GI50 [9]: > 100 µM
- TGI [9]: > 100 µM
- GI50 [10]: 0.923 µM
- TGI [10]: 7.51 µM
- GI50 [11]: 3.52 µM
- TGI [11]: > 100 µM
- GI50 [12]: 3.33 µM
- TGI [12]: > 100 µM
- GI50 [13]: 3.59 µM
- TGI [13]: > 100 µM
- GI50 [14]: > 100 µM
- TGI [14]: > 100 µM
- GI50 [15]: 1.83 µM
- TGI [15]: 3.27 µM
- GI50 [16]: > 100 µM
- TGI [16]: > 100 µM

Structure (SMILES): Cc1ccc(NC(=O)c2cc3ccccc3c(N=Nc3ccccc3O)c2O)c(C)c1
- TGI [1]: 19.5 µM
- TGI [17]: 8.29 µM
- TGI [18]: 3.7 µM
- TGI [19]: 79.1 µM
- TGI [20]: 5.71 µM
- TGI [21]: 19.4 µM
- TGI [22]: 12.9 µM
- TGI [23]: 11.5 µM
- TGI [24]: 14.8 µM
- TGI [4]: 2.5 µM
- TGI [25]: 2.61 µM
- TGI [5]: 4.75 µM
- TGI [26]: 11.6 µM
- TGI [27]: 12.7 µM
- TGI [28]: 8.77 µM
- TGI [6]: 12.7 µM
- TGI [7]: 10.5 µM
- TGI [29]: 10.5 µM
- TGI [30]: 11.1 µM
- TGI [31]: 11.1 µM
- TGI [8]: 11.8 µM
- TGI [32]: 12.1 µM
- TGI [33]: 5.87 µM
- TGI [34]: 16.4 µM
- TGI [35]: 6.61 µM
- TGI [36]: 2.2 µM
- TGI [9]: 3.35 µM
- TGI [37]: 13.1 µM
- TGI [38]: 4.09 µM
- TGI [39]: 13.8 µM
- TGI [10]: 3.53 µM
- TGI [40]: 11.4 µM
- TGI [41]: 12.1 µM
- TGI [42]: 17.3 µM
- TGI [11]: > 100 µM
- TGI [12]: 14.9 µM
- TGI [13]: 10.1 µM
- TGI [43]: 11.8 µM
- TGI [14]: 16.7 µM
- TGI [15]: 3.98 µM
- TGI [44]: 13.5 µM
- TGI [16]: 24.5 µM
- TGI [45]: 10 µM
- TGI [46]: 18.7 µM
- TGI [47]: 13.7 µM
- TGI [48]: 20 µM
